Measurements reported in patent US20170295783A1, “COMPOSITIONS AND METHODS TO SELECTIVELY CONTROL SPECIES” (STEPHEN F. AUSTIN STATE UNIVERSITY, priority 2014, published 2017).

Columns and labels:
[1] = system: human tumor cells or normal cells; conditions: Li, et al., 2013; cited from earlier work
[2] = system: T. sebifera seedlings; experiment: Droplet test and foliar spray of fractions on Chinese tallow seedlings; parameters: species or system Triadica sebifera; conditions: in vivo
Excerpt: The leaf surfaces of the experimental plants were checked daily for two weeks by a ×60 portable microscope linked to an iPhone™.

[3] = system: Giant Salvinia; experiment: Leaf-blade droplet bioassay on giant salvinia; format: in vivo, Salvinia molesta; conditions: for Activity against Giant Salvinia: 8 μL of 1% solution on lower leaf surface
Experimental: The three plants in the first container served as control without any treatment, three plants in the second container were treated with 1% DMSO, three plants in the third container were treated with 5% DMSO, three plants in the fourth container were treated with 0.5% Dyne-Amic®, and the plants in each of the other four containers were treated with each of the four testing isolates, respectively. For each of the three plant in the 0.5% Dyne-Amic® treatment, 8 μL of 0.5% Dyne-Amic® was applied on the lower surface of each of the two mature leaf blades close to the terminal bud by pipet and 8 μL of 0.5% Dyne-Amic® was applied on the upper surface (with trichomes) of each of the two other mature leaf blades close to the terminal bud by pipet. For all three plants in each of the DMSO or testing isolates treatment containers, 8 μL of each experimental solution was applied on the lower surface of each of the two mature leaf blades close to the terminal bud by pipet.

[4] = system: A. palmeri; experiment: Leaf droplet bioassay on A. palmeri seedlings; format: in vivo, Amaranthus palmeri; conditions: 10 μL 0.5% glyphosate
Experimental: Bioassays: The experimental plants were 3-week-old A. palmeri seedlings germinated from the seeds collected from the above described glyphosate-resistant plants. The seedlings were grown in pots with Miracle Grow Potting Mix soil in the greenhouse (30° C. during the day time and 20° C. at night). The intact seedling plants of 3-week old Q. texana and 2-month-old L. styraciflua grown in pots in greenhouse were also tested in this experiment. […] The leaf surfaces of the experimental plants were checked daily for two weeks by a ×60 portable microscope linked to an iPhone™.

Compound	cytotoxicity against human tumor cells or normal cells [1]	Activity against Giant Salvinia [3]	leaf injury during the two weeks of observation ([3]; 8 μL/leaf, 1% solution)	also measured
CC(=O)/C=C/[C@H]1C(C)=C[C@H](O)CC1(C)C	did not show any cytotoxicity	–	–	–
COc1c(OC)c(OC)c2oc(=O)ccc2c1OC [5,6,7,8-Tetramethoxycoumarin, 5,6,7,8-tetramethoxycoumarin]	–	–	–	endocidal activity in the droplet test [2]: showed endocidal activity
CC(=O)/C=C/C1=C(C)C[C@@H](O)CC1(C)C [compound 1, (+)-3-Hydroxy-β-ionone]	did not show any cytotoxicity	Potent activity	–	leaves dead by the end of experiment (of six) ([3]; 8 μL/leaf, 1% solution): two leaves were dead; time to significant injury of the six treated leaf blades ([3]; 8 μL/leaf, 1% solution, lower surface): ≤ 12 h; time to death of lower surface contact tissues (FIG. 1) ([3]; applied on the lower surface of the leaf blade): ≤ 12 h
CC(=O)/C=C/[C@H]1C(C)=C[C@H](O)CC1(C)C [compound 2, (3R,6R,7E)-3-hydroxy-4,7-megastigmadien-9-one]	–	Weak activity	no or slight injury	–
CC(=O)/C=C/[C@@]12O[C@]1(C)C[C@@H](O)CC2(C)C [compound 3, Annuionone D]	did not show any cytotoxicity	No activity	no or slight injury	–
CC(=O)/C=C/[C@@]1(O)C(C)=CC(=O)CC1(C)C [compound 4, Dehydrovomifoliol]	did not show any cytotoxicity	No activity	no or slight injury	–
O=C(O)CNCP(=O)(O)O [glyphosate]	–	–	–	leaf injury [4]: no injury
